Reference: patent US6921824B1, “Ruthenium dimeric complexes suitable as antimetastatic and antineoplastic agents” (priority 1999, dated 2005)

Test system: MCa mammary carcinoma
Assay: Post-surgical treatment: inhibition of lung metastases at advanced stage of growth, MCa mammary carcinoma
Type: in vivo, CBA mice
Settings: for Lung metastases Number % T/C / Lung metastases weight % T/C: Treated/Control; for Lung metastases Number / Lung metastases Weight: evaluated day 28; for Growth of the lung metastases (in words): post-surgical treatment at LD0.05 dosages
Procedure: In vivo testing of the activity of the compounds according to the present invention in mice affected by MCa mammary carcinoma: inhibition activity of lung metastases at an advanced stage of growth.
Five groups of CBA kin female mice weighing 23±3 g were inoculated with […] viable MCa mammary carcinoma cells (as determined by trypan blue exclusion) in 0.05 ml Dulbecco's pH 7.4 buffered calcium- and magnesium-free solution (PBS) by intramuscular injection with a sterile insulin syringe. The tumour cells were derived from donors of the same strain injected with the same tumour cells and with the same procedures 2 weeks before. The suspension of tumour cells was prepared in PBS by mechanical mincing of the tumour mass obtained from donor mice, and further removal of tissue debris and cells was obtained, respectively, by filtration through a double layer of sterile gauze and centrifugation at 250× g for 10 minutes. Kin animals were obtained from a colony from Chester Beatthy from London (UK) and were grown in the University of Trieste animal house accordingly to the procedures accepted for the rearing of kin animals. The MCa mammary carcinoma tumour cell-line was derived from a stock, stored in liquid nitrogen, of tumour cells originally obtained from Rudjer Boskovic Institute of Zagreb (HR).
On day 14 since tumour cells implantation, the primary tumour was surgically removed, after general anesthesia of the animals by intraperitoneal injection of 125 mg/kg of Ketamine.
From day 15 to day 20 after tumour cells implantation, the five mice groups were treated, intraperitoneally with a sterile insulin syringe, respectively with: • Group 1 Control (7 animals): 10 ml/kg of body weight/day of sterile and pyrogen-free physiological solution; • Group 2 (7 animals): 28 mg/kg of body weight/day of the compound as prepared in Example 4 in sterile and pyrogen-free physiological solution; • Group 3 (7 animals): 28 mg/kg of body weight/day of the compound as prepared in Example 7 in sterile and pyrogen-free physiological solution; • Group 4 (7 animals): 51 mg/kg of body weight/day of the compound as prepared in Example 8 in sterile and pyrogen-free physiological solution; • Group 5 (7 animals): 52 mg/kg of body weight/day of the compound as prepared in Example 10 in sterile and pyrogen-free physiological solution.
The dosages corresponding to the LD0.05, calculated separately in animals of the same strain and gender and having the same body weight, was administered intraperitoneally for 6 consecutive days, according to the method of Lichtfield and Wilcoxon, and with an observation time of 10 days since last dose.
On day 28 since tumour cells implantation, the mice were sacrificed by cervical dislocation for the evaluation of lung metastases. The lungs were abducted from the animals immediately after sacrifice, divided in single lobes that were soon examined with a low-magnification microscope equipped with a graduated ocular-grid for the measurement of metastases size, where the orthogonal axes a and b (a≦b) were identified. The metastases were then classified by size and the metastatic tumour weight for each animal was calculated as the sum of each single metastasis weight, each of them considered as a rotation solid developed around the above mentioned axes according to the formula (π/6)·a^2·b. The experimental data obtained were then processed by appropriate statistical tests.
The results are reported in Table 2, where the number and weight of lung metastases obtained in groups of animals treated with the compounds of the present invention with respect to the group of controls treated with sterile and pyrogen-free physiological solution, are shown.

[1] = 52 mg/kg of body weight/day i.p. day 15-20, post-surgical
[2] = 28 mg/kg of body weight/day i.p. day 15-20, post-surgical
[3] = 51 mg/kg of body weight/day i.p. day 15-20, post-surgical

## C[SH](C)(=O)[Ru-]([Cl])([Cl])([Cl])([Cl])[n+]1ccc(CCc2cc[n+]([Ru-]([Cl])([Cl])([Cl])([Cl])[SH](C)(C)=O)cc2)cc1.[Na+].[Na+] [Example 10, [Na]2[trans-RuCl4(Me2SO)]2(μ-etbipy)]
[1]
  Lung metastases Number % T/C: 53%
  Lung metastases weight % T/C: 29%
  Lung metastases Number: 27.8 ± 7.8
  Lung metastases Weight: 71 ± 20 mg
  Growth of the lung metastases (in words): reduce significantly

## C[SH](C)(=O)[Ru-]([Cl])([Cl])([Cl])([Cl])[n+]1ccc[n+]([Ru-]([Cl])([Cl])([Cl])([Cl])[SH](C)(C)=O)c1.[Na+].[Na+] [Example 7, [Na]2[trans-RuCl4(Me2SO)]2(μ-pym)]
[2]
  Lung metastases Number % T/C: 78%
  Lung metastases weight % T/C: 44%
  Lung metastases Number: 40.4 ± 7.4
  Lung metastases Weight: 107 ± 31 mg
  Growth of the lung metastases (in words): reduce significantly

## [Na]2[trans-RuCl4(Me2SO)]2(μ-bipy) [Example 8]
[3]
  Lung metastases Number % T/C: 40%
  Lung metastases weight % T/C: 31%
  Lung metastases Number: 20.6 ± 7.3
  Lung metastases Weight: 76 ± 31 mg
  Growth of the lung metastases (in words): reduce significantly

## C[SH](C)(=O)[Ru-]([Cl])([Cl])([Cl])([Cl])[n+]1cc[n+]([Ru-]([Cl])([Cl])([Cl])([Cl])[SH](C)(C)=O)cc1.[Na+].[Na+] [Example 4, [Na]2[trans-RuCl4(Me2SO)]2(μ-pyz)]
[2]
  Lung metastases Number % T/C: 80%
  Lung metastases weight % T/C: 39%
  Lung metastases Number: 41.4 ± 8.0
  Lung metastases Weight: 96 ± 20 mg
  Growth of the lung metastases (in words): reduce significantly
